# ± gives the expanded uncertainty stated by the source.
# Columns and labels:
# [1] = Crystal
# [2] = Molar enthalpy of transition or fusion; conditions: Crystal; DSC
smiles,measurement,setting,value
"CCNC(=S)NCC [N,N'-diethylthiourea]",mass density,"[1]; 293 K, 101.33 kPa, X-ray diffraction",1120 ± 5.8 kg/m3
same,Triple point temperature,[1]; DSC,351.28 ± 0.87 K
same,Molar enthalpy of transition or fusion,[2],3.75 ± 0.206 kcal/mol
